According to patent US10815231B2, “[1,2,4] triazolo [1,5-a] pyridine derivative and crystalline form thereof” (WEST CHINA HOSPITAL, SICHUAN UNIVERSITY, priority 2016, dated 2020):
Where “and” joins values, the source holds several entries; their conditions need not be identical. Identical values can stand only once.

Key:
H1299 cells = test: MTT detection method, inhibitory effect against H1299 cells; type: cell-based; settings: 5000 cells/well, treatment 48 h; for The mean inhibitory ratio (%): mean of three; for The inhibitory ratio (%) for three parallel assays: single parallel assays
Excerpt: (§1) MTT detection method was used, and MTT is a yellow compound and a dye accepting hydrogen ions, and can be used as the respiratory chain in mitochondria of viable cells. Under the action of succinate dehydrogenase and cytochrome C, the tetrazolium ring broke to form blue formanzan crystal, and the formation amount of formanzan crystal was only directly proportional to the viable counts. The formanzan crystal formed by reduction can dissolve in dimethyl sulfoxide (DMSO), and the optical density (OD) value can be determined at 490 nm using ELISA, to reflect the viable counts.
(§2) Lung cancer cell lines: A549 and H1299.
(§3) Experimental materials: lung cancer cell lines, instruments and tools for cell culture, MTT, and the compound mother liquid (10 mmol/L).
(§4) (3-1) Cell lines A549 and H1299 were recovered, and when the cells were in good conditions, namely cells grew to about 80% after one passage (i.e. the logarithmic growth phase), the cells were planked (96-well plate).
(§5) (3-2) Firstly, cells were collected, and the concentration of cell suspension was adjusted with counting chamber. Cells were seeded in 96-well plate at 1000-10000 cells/well, and the detailed cell numbers in each well were dependent on the growth rate of different cells and the action time of drugs. A549 cells were seeded at 5000 cells, while H1299 cells were also seeded at 5000 cells, 200 μl for each well (100 μl cell suspension+100 μl drug dilution at different concentration gradient). The edge wells (36) were added 200 μl culture media (for prevention of edge effect).
(§6) (3-3) After planking and adding drugs, the plate was treated at 24 h, 48 h, and 72 h, and then for coloration, each well was added 200 μl culture media containing 20 μl MTT solution (5 mg/mL). The plate was continually cultured for 1-4 hours, and the culture supernatant fluid in each well was carefully absorbed. For suspension cells, the culture supernatant fluid in each well need be centrifuged before drawing. 150 μl DMSO was added to each well, and the plate was shaken on a shaking table for 15-20 min, to allow the crystals to be completely dissolved.
(§7) (3-4) Colorimetry: The colorimetry was performed by ELISA, and the optical absorption value of each well was tested at a wavelength of 490 nm or 570 nm, and the result was recorded.
(§8) (3-5) Calculation Inhibition ratio=(the control−the drug)/the control×100%
(§9) IC50 (50% inhibitory concentration) can be calculated by spass software based on the inhibitory ratio at different concentration.

A549 cells = test: MTT detection method, inhibitory effect against A549 cells; type: cell-based; settings: 5000 cells/well, treatment 48 h; for The mean inhibitory ratio (%): mean of three; for The inhibitory ratio (%) for three parallel assays: single parallel assays
Excerpt: as §1, §2, §3, §4, §5, §6, §7, §8, §9

Row | SMILES | The mean inhibitory ratio (%) (H1299 cells; 25 μm) | The inhibitory ratio (%) for three parallel assays (H1299 cells; 25 μm) | The mean inhibitory ratio (%) (H1299 cells; 50 μm) | The inhibitory ratio (%) for three parallel assays (H1299 cells; 50 μm) | The mean inhibitory ratio (%) (H1299 cells; 100 μm) | The inhibitory ratio (%) for three parallel assays (H1299 cells; 100 μm) | The mean inhibitory ratio (%) (A549 cells; 25 μm) | The inhibitory ratio (%) for three parallel assays (A549 cells; 25 μm) | The mean inhibitory ratio (%) (A549 cells; 50 μm) | The inhibitory ratio (%) for three parallel assays (A549 cells; 50 μm) | The mean inhibitory ratio (%) (A549 cells; 100 μm) | The inhibitory ratio (%) for three parallel assays (A549 cells; 100 μm) | The mean inhibitory ratio (%) (H1299 cells; 80 μm) | The inhibitory ratio (%) for three parallel assays (H1299 cells; 80 μm) | The mean inhibitory ratio (%) (A549 cells; 40 μm) | The inhibitory ratio (%) for three parallel assays (A549 cells; 40 μm)
1 | Nc1nc2cccc(-c3ccc(CN4CCOCC4)cc3)n2n1 [Compound 1, 2-amino-5-[4-(4-morpholinylmethyl)phenyl]-[1,2,4]triazolo[1,5-a]pyridine] | 62 | 63% and 61% | 95 | 93% and 94% and 97% | 85 | 86% and 84% | 10 | 10% and 9% | 29 | 28% and 31% and 29% | 31 | 31% and 30% | – | – | – | –
2 | Ic1nc2cccc(-c3ccc(CN4CCOCC4)cc3)n2n1 [Compound 2, 2-iodo-5-[4-(4-morpholinylmethyl)phenyl]-[1,2,4]triazolo[1,5-a]pyridine] | – | – | 31 | 32% and 31% and 29% | 31 | 32% and 29% | 27 | 26% and 25% and 30% | 24 | 23% and 27% | – | – | 33 | 33% and 32% | 22 | 21% and 22%
3 | N#Cc1nc2cccc(-c3ccc(CN4CCOCC4)cc3)n2n1 [Compound 3, 2-cyano-5-[4-(4-morpholinylmethyl)phenyl]-[1,2,4]triazolo[1,5-a]pyridine] | – | – | 32 | 33% and 32% | 34 | 33% and 34% and 35% | 22 | 20% and 26% | 25 | 24% and 27% | – | – | 32 | 32% | 22 | 22% and 24% and 20%
